These results are taken from patent US9925166B2, “Methods of treating an overweight or obese subject” (Zafgen, Inc., priority 2008, dated 2018).

For the test, the target named is T1, MetAP-2 (Mus musculus, UniProt O08663).
T1 construct: from tissue; host or cells: adipose tissue of diet-induced obese mice
In words: ELISA assay of MetAP-2 binding (free MetAP-2) in adipose tissue lysates of dosed diet-induced obese mice. The procedure:
Diet-induced obese mice were orally (p.o.) administered fumagillin (3 mg/kg or 10 mg/kg; Medivet), subcutaneously administered (s.c.) TNP-470 (1 mg/kg, 3 mg/kg, 10 mg/kg, or 30 mg/kg; synthesized by standard semi-synthetic processes as described in European Patent EP 0 357 061), or administered a solution of 10% dimethyl sulfoxide (DMSO; control; Sigma-Aldrich). Mice were sacrificed and adipose tissue samples were obtained.
An ELISA assay of MetAP-2 binding was conducted with tissue lysates prepared from the adipose tissue samples. The MetAP-2 ELISA is a quantitative assay to determine the amount of free MetAP-2 in tissue or cell lysates, i.e., MetAP-2 not covalently bound to fumagillin or TNP-470. The assay takes advantage of the fact that biotinylated fumagillin can bind to the catalytic site of the MetAP-2 enzyme only if this site has not already been derivatized by fumagillin or TNP-470. The biotinylated MetAP-2-inhibitor complex was captured on a streptavidin-coated plate and detected with a rabbit anti-MetAP-2 antibody (Zymed Laboratories Inc.). Horseradish peroxidase-conjugated anti-rabbit immunoglobulin G (IgG) was added to detect the MetAP-2 antibody immobilized to the streptavidin-coated plate with its covalently bound biotinylated fumagillin. Tetramethylbenzidine (TMB) substrate was added and the reaction was stopped by addition of sulfuric acid. Analysis was performed by determining absorption at 450 nm. Human recombinant MetAP-2 (R&D Systems), pre-bound to biotinylated fumagillin, was used to generate a standard curve.
(In general: ELISA stands for enzyme-linked immunosorbent assay.)

T1 sequence (O08663 whole entry): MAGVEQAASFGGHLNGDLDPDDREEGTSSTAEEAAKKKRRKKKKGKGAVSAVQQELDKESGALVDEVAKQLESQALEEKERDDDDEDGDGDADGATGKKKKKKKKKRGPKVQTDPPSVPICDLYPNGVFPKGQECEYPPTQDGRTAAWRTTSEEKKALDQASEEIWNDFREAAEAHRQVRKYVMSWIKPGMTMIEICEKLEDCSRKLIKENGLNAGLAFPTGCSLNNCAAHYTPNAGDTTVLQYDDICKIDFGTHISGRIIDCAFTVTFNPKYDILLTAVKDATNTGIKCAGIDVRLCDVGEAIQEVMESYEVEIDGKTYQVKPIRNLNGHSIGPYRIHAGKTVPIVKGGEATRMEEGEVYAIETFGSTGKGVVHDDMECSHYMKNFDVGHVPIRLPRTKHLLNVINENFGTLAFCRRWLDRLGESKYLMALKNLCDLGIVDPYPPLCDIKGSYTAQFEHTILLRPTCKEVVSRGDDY

Take `CO[C@@H]1[C@H](OC(=O)NC(=O)CCl)CC[C@]2(CO2)[C@H]1[C@@]1(C)O[C@@H]1CC=C(C)C` [TNP-470]: the “binding to MetAP-2 in adipose tissue” value (TNP-470 subcutaneously 1, 3, 10 or 30 mg/kg, diet-induced obese mice, FIG. 1) is “binds MetAP-2 in a dose dependent manner”. For the same molecule, where the note is “s.c. TNP-470 vs p.o. fumagillin, 3 mg/kg and 10 mg/kg”, the “binding to MetAP-2 in adipose tissue compared to orally administered fumagillin at the same dosages” value was “greater binding”.
